Where two headings read alike, the source gives them in different places.
What was measured:
[1] = tested on: several species of bacteria; test: photoeradication using methylene blue mediated PDT and the surfactant benzalkonium chloride (FIG. 2), qualitative colony count; assay type: cell-based; settings: diode laser about 664 nm, 100 mw/cm^2, 30 to 40 J/cm^2; methylene blue 0 to 100 μg/ml, benzalkonium chloride 0 to 0.01%; topically applied
Description: One particular treatment protocol according to the present invention utilizes the photosensitive material methylene blue and surfactant benzalkonium chloride. Benzalkonium chloride concentrations from 0.001% to 0.5% have been identified as advantageous in the destruction of certain microorganisms, such as Candida albicans, Escherechia coli, Pseudomonas aeruginosa, Staphylococcus aureus, Klebsellia, Serratia,Haemophilus influenza, and Streptococcus pneumoniae. Reference may be made to FIG. 2, which illustrates a schedule of investigation results. […] The laser used for illumination was a diode laser. Methylene blue concentrations ranged from 0 to 100 μg/ml. Benzalkonium chloride concentrations ranged from 0 to 0.01%. The combined solution was topically applied at the cell site. A light dosage rate was 100 mw/cm^2. Light dosages ranged from 30 to 40 J/cm^2. A qualitative colony count relates particular colony counts to an associated score.

[2] = cited from earlier work
[3] = cited from earlier work; remark: listed apart in the source

In the case of `CN(C)c1ccc2nc3ccc(=[N+](C)C)cc-3sc2c1` [methylene blue], the “sensitization of bacteria to killing by laser irradiation” value [1] is listed as “alone neither the surfactant nor the photosensitizing agent sensitized the bacteria to killing by laser irradiation”, the “toxic effects on administration in high doses” value ([2]; humans, orally and intravenously, high doses) is listed as “without any toxic effects” and the tissue toxicity ([2]; in vivo) is listed as “very low tissue toxicity”. The “yield of the singlet oxygen generation” value ([3]; pH 5) was 0.2 and the “yield of the singlet oxygen generation” value ([3]; pH 9) was 0.94.
For “alkyl dimethyl benzylammonium chloride [benzalkonium chloride]”, the “sensitization of bacteria to killing by laser irradiation” value [1] was “alone neither the surfactant nor the photosensitizing agent sensitized the bacteria to killing by laser irradiation”.

Source: patent publication US8187278B2, “Photodynamic cellular and acellular organism eradication utilizing a photosensitive material and benzalkonium chloride” (Advanced Photodynamic Technologies, Inc., priority 1998, dated 2012)
